Test results from patent publication US11596668B2, “Tissue repair” (THE UNIVERSITY OF SUSSEX, priority 2017, dated 2023).

Legend:
[1] = tested on: rat aortic endothelial cells (RAECs); experiment: Proliferation assay, endothelial cells; format: cell-based; details: 24 h; for proliferation of rat aortic endothelial cells: 100 μM (0.1 mM); for optimum concentration for enhancing proliferation of rat aortic endothelial cells: tested 0-200 μM
Procedure: (§1) Proliferation assay: Proliferation of rat aortic endothelial cells (RAECs) and rat aortic smooth muscle cells (isolated from rats at animal unit at Sussex University) was evaluated using Trypan Blue exclusion test. Cells were seeded in 96 well plates at a seeding density of 1×10^4 cells/mL (0.15 mL/well). After 24 h, cells where treated with or without different concentrations of 2 HIF-1 inducers; DMOG and BIQ (0-200 μM). After another 24 hours, Trypan Blue was added and the cells that were stained (dead) and unstained (live) were counted. Results were expressed as number of cells/mL.

[2] = tested on: rat aortic smooth muscle cells; experiment: Proliferation assay, smooth muscle cells; format: cell-based; details: 0-200 μM, 24 h
Procedure: as §1

[3] = tested on: vascular endothelial growth factor (VEGF); experiment: VEGF gene expression by real time qPCR in RAECs; format: cell-based, rat; details: 100 μM, 18 h, 21% O2; reaches level similar to cells at 1% oxygen
Procedure: (§2) Cell culture: Rat aortic endothelial cells (RAECs) were seeded into 24-well plates and cultured until ˜80% confluent after which they were incubated with or without DMOG for 18 h at normal oxygen levels (21% O2). Cells incubated at 1% O2 where used as a positive control for HIF-1.
Real time qPCR: The gene expression of vascular endothelial growth factor (VEGF), a HIF-1 target gene, was analysed by quantitative polymerase chain reaction (qPCR). Cells were lysed using TRIzol (Invitrogen, Life Technologies) and RNA was then extracted and purified. RNA quality and concentration were determined using a NanoDrop ND-1000 (NanoDrop Technologies). Reverse transcription and real-time quantitative PCR (qPCR) were carried out on RNA samples for VEGF and β2-microglobulin (a housekeeping gene not affected by change in oxygen levels), using TaqMan gene expression assays (Applied Biosystems/Life Technologies). For gene expression quantification, the comparative threshold cycle (ΔΔCT) method was used following manufacturer's guide-lines. Results were normalized to β2-microglobulin expression and expressed as arbitrary units using one of the normoxic untreated samples as a calibrator. […]

[4] = tested on: human fibroblasts; experiment: Scratch assay, skin injury model, fibroblasts; format: cell-based; details: agent alone (DMOG 100 μM or EPO 1 ng/ml), 3% serum, 21% oxygen, vs untreated cells
Procedure: (§3) An in vitro injury model using cells relevant to wound injury were used. Two different cell lines; human keratinocytes (HaCaT) and human fibroblasts were used as skin injury models.
(§4) Scratch assay: As described in example 3, the reparative effect of EPO (1 ng/mL) and DMOG (100 uM) were tested alone or in combination on HaCaT and fibroblasts incubated in cell culture medium (Dulbeccos cell culture medium) containing 3% serum in 21% oxygen for 24 h.

[5] = tested on: HIF-1; experiment: HIF-1 in plasma by ELISA post balloon injury; format: in vivo, Sprague Dawley rats; details: DMOG 5 mg/Kg local hydrogel, 24 h post injury
Text: (§5) Angioplasty model: Balloon catheter injury (angioplasty) was the model used as an in vivo injury model using Sprague Dawley rats (450 g). Animals were anesthetized using 2% isoflurane where the rats were placed in a supine position. The right carotid artery was exposed and a (2F Fogarty catheter) was used to cause injury. The catheter was inserted into the common carotid artery via the external carotid to cause complete removal of the vascular endothelium from the common carotid artery down to its junction with the aortic arch. DMOG (5 mg/Kg) and EPO (100 ug/Kg) were administered either alone or in combination in the form of a hydrogel (30% w/v pluronic F127 gel) and applied to the artery after injury. Endothelial regrowth was then assessed using Evan's blue staining (injected IV in the tail vein 30 min before culling the animal) 0 and 5 days after injury to assess the area of de-endothelialised surface; re-endothelialised regions remain unstained. Images of stained arteries were quantified using Image J software.
ELISA: Blood was collected from venous tail at 0, 1 and 5 days post injury. Plasma was separated and used for quantitative measurement of HIF-1 using ELISA method as described earlier.

[6] = tested on: HIF-1; experiment: HIF-1 in plasma by ELISA after local application on carotid artery; format: in vivo, Sprague Dawley rats; details: 24 h
Procedure: (§6) Male animal study: Sprague Dawley rats (450 g) were used in this study. Animals were anesthetized using 2% isoflurane where the rats were placed in a supine position. The right carotid artery was exposed and DMOG was applied locally at different concentrations (0-7.5 mg/Kg) on the artery using pluronic gel (30% w/w). 3 rats were used in each concentration group.
ELISA: After 24 h, blood was taken from the rat's tail in tubes containing EDTA as an anti-coagulant. Blood was kept on ice and centrifuged to separate the plasma which was immediately treated with a protease inhibitor. HIF-1 was quantified in the collected plasma using the ELISA assay as described in example 2. After 24 h, treated animals were culled and both the right (treated) and left (untreated) carotid arteries were isolated and snap frozen for further analysis.

[7] = tested on: human keratinocytes (HaCaT); experiment: Scratch assay, skin injury model, keratinocytes; format: cell-based; details: agent alone (DMOG 100 μM or EPO 1 ng/ml), 3% serum, 21% oxygen, vs untreated cells
Procedure: as §3, §4

[8] = tested on: vascular endothelial growth factor (VEGF); experiment: VEGF gene expression in carotid artery by qPCR after local application; format: in vivo, Sprague Dawley rats; details: 24 h
Procedure: as §6
Real time qPCR: RNA was extracted and purified from the frozen artery sections using TRIzol (Invitrogen, Life Technologies). RNA quality and concentrations were determined using a NanoDrop ND-1000 (NanoDrop Technologies). Reverse transcription and real-time quantitative PCR (qPCR) were carried out on RNA samples for VEGF and β2-microglobulin as described in example 2.

[9] = tested on: HIF-1; experiment: HIF-1 protein levels in cell lysates by ELISA; format: cell-based, rat; details: 100 μM, 18 h, 21% O2; reaches level similar to cells at 1% oxygen
Procedure: as §2
Enzyme linked immunosorbent assay (ELISA): HIF-1 protein levels were measured using ELISA. Treated cells were lysed in 80 μL lysis buffer (25 mmol/L Tris HCl pH 7. 6, 0.1% SDS, deoxycholate, 1% NP40, 0.5 mol/L EDTA, 40 mmol/L EGTA and protease inhibitors). Lysates were then centrifuged at 11,000 g for 15 min at 4° C. and the supernatant was collected. Protein concentrations were quantified using a BCA reagent kit (Pierce Biotechnology). HIF was measured using an ELISA kit (R&D systems and biotechne, UK) and expressed as pg/mg protein.
Similar to the methods described in example 2, HIF-1 protein expression and VEGF gene expression were quantitatively measured in vitro using ELISA and real time qPCR respectively using different the different HIF-1 inducers at different concentrations (0-500 uM).

[10] = tested on: rat carotid artery; experiment: Balloon catheter injury (angioplasty) model, endothelial regrowth by Evan's blue staining; format: in vivo, Sprague Dawley rats; details: DMOG 5 mg/Kg alone, local hydrogel, 5 days after injury
Text: as §5

[11] = tested on: rat aortic endothelial cells (RAECs); experiment: Scratch assay (in vitro injury model), wound closure; format: cell-based; details: HIF-1 inducer 100 μM alone, 21% oxygen, 5% serum, vs untreated cells
Procedure: Scratch assay: This assay was used as an in vitro model of injury in rat aortic endothelial cells (RAECs). The effect of EPO on wound closure was investigated in either 21% or 1% O2. A reproducible scratch was produced in the endothelial monolayer and thereafter, either EPO (1 ng/mL) or saline (control) was added to the cells (in rat endothelial growth medium containing 5% serum) and subsequently incubated in 21% or 1% O2 for 24 hours. The defined area of the scratch was photographed under an inverted microscope (Olympus CKX41; Olympus Corporation, Tokyo, Japan) at lox magnification using a Micropix 5 megapixel colour complementary metal-oxide semiconductor digital camera (Olympus Cooperation). The position of the wound image was standardized each time against a horizontal line drawn on the base of the plate passing through the centre of each well. The scratch area was quantified using ImageJ software (National institutes of Health, Bethesda, Md., USA).
Scratch assay: Scratch assay was used as described in example 1. Cells where treated with DMOG (100 μM) and/or EPO (at 1 ng/mL). Cells incubated with medium containing 10% serum where used as positive control to reflect the maximum wound closure the cells could attain after 24 h. […]

[12] = 0-7.5 mg/Kg applied locally on carotid artery in pluronic gel
[13] = local application on carotid artery

O=C(O)CNC(=O)c1nc(Cl)c2ccccc2c1O [BIQ, N-[(1-Chloro-4-hydroxy-3-isoquinolinyl)carbonyl]glycine] was tested, and the “proliferation of rat aortic endothelial cells” value [1] was “enhanced”, the “optimum concentration for enhancing proliferation of rat aortic endothelial cells” value [1] was 100 µM and the “proliferation of smooth muscle cells” value [2] was “no effect”.

COC(=O)CNC(=O)C(=O)OC [DMOG, dimethyloxalylglycine] was tested, and the “gene expression of VEGF” value [3] was “increase”, the “% wound closure after 24 h” value [4] was “no significant different” and the “HIF-1 levels in rat plasma” value [5] was “significantly increased”. The “proliferation of rat aortic endothelial cells” value [1] was “enhanced”, the “optimum concentration for enhancing proliferation of rat aortic endothelial cells” value [1] was 100 µM and the “proliferation of smooth muscle cells” value [2] was “no effect”. The “HIF levels in plasma” value [6, 12] was “concentration dependent effect”, the “optimal dose to cause an increase in HIF-1” value [6, 13] was 5 mg/kg and the “% wound closure after 24 h” value [7] was “no significant different”. The “gene expression of VEGF in carotid artery” value [8, 12] was “concentration dependent effect”, the “optimal dose to cause an increase in VEGF” value [8, 13] was 5 mg/kg and the “HIF levels in cell lysates” value [9] was “increase”. The “repair of the endothelial lining of rat carotid artery” value [10] was “significant effect”.

In the case of O=C(O)CNC(=O)c1c(O)c2ccccc2n(Cc2ccccc2)c1=O [IOX, N-[[1,2-Dihydro-4-hydroxy-2-oxo-1-(phenylmethyl)-3-quinolinyl]carbonyl]glycine], the “% wound closure after 24 h” value [11] is reported as “no change”.
